# Experimental data: patent EP0303437A2, “Platinum triamine compounds containing nucleotides or nucleosides as antitumor agents” (ENGELHARD CORPORATION, priority 1987, dated 1989)
# “And” between values parts separate entries of the source, which are not always exact repeats. Equal values may be shown once.
# Columns and labels:
# Sarcoma 180 Ascites = Sarcoma 180 Ascites (S180a) antitumor screening; type: in vivo, Female CFW mice; settings: for %ILS: ILS ≧ 50% indicates activity; for Surv: survivors per group of 6 mice at twice the MST of controls
# Description: (§1) Each of the compounds was evaluated in the Sarcoma 180 Ascites screen and at least some of the compounds were also evaluated in the L1210 Leukemia tumor models.
# (§2) L1210 screening was conducted according to a published method. […] Female CDF₁ mice (16 - 22 g) were implanted with 1 x 10⁶ tumor cells ip on day zero. Compounds were administered in 0.5 mL water ip on day one. Groups of 6 mice were used for each dose. A control group of mice received only tumor and 0.5 mL water. A positive control group received tumor and 8 mg/kg cisplatin in 0.5 mL 0.15 M NaCl. The test was terminated after three times the mean survival time (MST) of the control group, surviving mice were counted as dying on that day. Activity was determined based on the percent increase in MST of test mice over controls (%ILS). […] The tumor line was maintained through weekly transfer of 5 x 10⁴ cells in DBA/2 mice.
# Female CFW mice (18 - 25 g) were implanted with 2 x 10⁶ cells ip on day zero. Compounds were administered in 0.5 mL water ip on day one. Groups of 6 mice were used for each test dose as well as controls as defined above. The test was run for twice the MST of the control group, with survivors counted as dying on that day. An ILS of ≧ 50% indicates activity. The tumor line was maintained through weekly transfer of 4 x 10⁶ cells in CFW mice.
# L1210 Leukemia = L1210 Leukemia antitumor screening; type: in vivo, Female CDF₁ mice; settings: for %ILS: ILS ≧ 25% represents activity; for Surv: survivors per group of 6 mice at three times the MST of controls
# Description: as §1, §2
# [1] = Dose 10 mg/kg ip in water on day one
# [2] = Dose 20 mg/kg ip in water on day one
# [3] = Dose 40 mg/kg ip in water on day one
# [4] = Dose 80 mg/kg ip in water on day one
# [5] = Dose 160 mg/kg ip in water on day one
# [6] = Dose 320 mg/kg ip in water on day one
# [7] = 8 mg/kg cisplatin in 0.5 mL 0.15 M NaCl, survivors per 6 mice, one value per experiment
Compound,%ILS (Sarcoma 180 Ascites; [1]) [%],Surv (Sarcoma 180 Ascites; Dose 10 mg/kg ip),%ILS (Sarcoma 180 Ascites; [2]) [%],Surv (Sarcoma 180 Ascites; Dose 20 mg/kg ip),%ILS (Sarcoma 180 Ascites; [3]) [%],Surv (Sarcoma 180 Ascites; Dose 40 mg/kg ip),%ILS (Sarcoma 180 Ascites; [4]) [%],Surv (Sarcoma 180 Ascites; Dose 80 mg/kg ip),%ILS (Sarcoma 180 Ascites; [5]) [%],Surv (Sarcoma 180 Ascites; Dose 160 mg/kg ip),%ILS (Sarcoma 180 Ascites; [6]) [%],Surv (Sarcoma 180 Ascites; Dose 320 mg/kg ip),%ILS (L1210 Leukemia; [1]) [%],Surv (L1210 Leukemia; Dose 10 mg/kg ip),%ILS (L1210 Leukemia; [2]) [%],Surv (L1210 Leukemia; Dose 20 mg/kg ip),%ILS (L1210 Leukemia; [3]) [%],Surv (L1210 Leukemia; Dose 40 mg/kg ip),%ILS (L1210 Leukemia; [4]) [%],Surv (L1210 Leukemia; Dose 80 mg/kg ip),further results
N.N.Nc1ccn(C2OC(CO)C(O)C2O)c(=O)n1.O=[N+]([O-])[O-].[Cl-].[Pt+2] [cis-[Pt(NH₃)₂(1-β-D-arabinofuranosylcytosine)Cl]NO₃],-12,0/6,-3,0/6,2,0/6,42,2/6,51,1/6,45,2/6,-22,0/6,-8,0/6,0,0/6,6,0/6,%ILS (L1210 Leukemia; [5]): 10%; Surv (L1210 Leukemia; Dose 160 mg/kg ip): 0/6; %ILS (L1210 Leukemia; [6]): 10%; Surv (L1210 Leukemia; Dose 320 mg/kg ip): 0/6
N.N.Nc1ccn(C2CC(O)C(CO)O2)c(=O)n1.[Cl-].[Cl-].[Pt+2] (stereo not drawn) [cis-[Pt(NH₃)₂(2′-deoxycytidine)Cl]Cl],10,0/6,34,0/6,61,2/6,85,3/6,76,4/6,51,1/6,,,,,,,,,
Nc1ccn(C2OC(CO)C(O)C2O)c(=O)[n+]1[Pt]([NH2])([NH2])[Cl].O=[N+]([O-])[O-] (stereo not drawn) [cis-[Pt(NH₃)₂(cytidine)Cl]NO₃],6,0/6,1,0/6,-4,0/6,-7,0/6,8,0/6,30,0/6,,,,,,,,,
Nc1nc2c(c(=O)[nH]1)[n+]([Pt]([NH2])([NH2])[Cl])cn2C1OC(CO)C(O)C1O.O=[N+]([O-])[O-] (stereo not drawn) [cis-[Pt(NH₃)₂(guanosine)Cl]NO₃],2,0/6,15,1/6,23,0/6,16,1/6,79,3/6,-45,1/6,-24,0/6,-4,0/6,-4,0/6,2,0/6,%ILS (L1210 Leukemia; [5]): 8%; Surv (L1210 Leukemia; Dose 160 mg/kg ip): 0/6; %ILS (L1210 Leukemia; [6]): -26%; Surv (L1210 Leukemia; Dose 320 mg/kg ip): 0/6
cis-[Pt(NH₃)₂(2′-deoxycytidine)Cl]NO₃,,,,,,,,,,,,,12,0/6,23,0/6,26,0/6,44,0/6,%ILS (L1210 Leukemia; [5]): 41%; Surv (L1210 Leukemia; Dose 160 mg/kg ip): 0/6; %ILS (L1210 Leukemia; [6]): 59%; Surv (L1210 Leukemia; Dose 320 mg/kg ip): 0/6
cis-[Pt(NH₃)₂(2′-deoxyguanosine)Cl]Cl,2,0/6,15,1/6,76,4/6,88,4/6,85,4/6,6,2/6,,,,,,,,,
"cis-[Pt(NH₃)₂Cl₂] [Positive Control, reference compound]",,,,,,,,,,,,,,,,,,,,,"Positive Control %ILS (Sarcoma 180 Ascites; 8 mg/kg cisplatin in 0.5 mL 0.15 M NaCl, one value per experiment, run with the compound of that table section): 86% and 54% and 82% and 59%; Positive Control Surv (Sarcoma 180 Ascites; [7]): 4/6 and 0/6 and 3/6; Positive Control Surv (L1210 Leukemia; [7]): 0/6"
